Reference: patent US20130337564A1, “Treatment of Pluripotent Cells” (Janssen Biotech, Inc., priority 2012, published 2013)
Values joined by “and” are separate entries in the source; they are usually repeats but may differ in a detail not shown here. Equal entries are not always repeated.

Assays:
Format in all cases: cell-based
[1] = test system: human embryonic stem cells (H9 line); test: High content screening assay: cell number (proliferative response)
Description: (§1) Maintenance of human embryonic stem cells (H9 line) was conducted as described in Example 1. Colonies of cells were maintained in an undifferentiated, pluripotent state with passage on average every four days. Passage was performed by exposing cell cultures to a solution of collagenase (1 mg/ml; Sigma-Aldrich) for 10 to 30 minutes at 37° C. followed by gentle scraping with a pipette tip to recover cell clusters. Clusters were allowed to sediment by gravity, followed by washing to remove residual collagenase. Cell clusters were split at a 1:3 ratio for routine maintenance culture or a 1:1 ratio for immediate assay. The human embryonic stem cell lines used were maintained at passage numbers less than passage 50 and routinely evaluated for normal karyotypic phenotype and absence of mycoplasma contamination.
(§2) Cell clusters used in the assay were evenly resuspended in normal culture medium and plated onto MATRIGEL-coated 96-well Packard VIEWPLATES (PerkinElmer) in volumes of 100 μA/well. MEF conditioned medium supplemented with 8 ng/ml bFGF was used for initial plating and recovery. Daily feeding was conducted by aspirating spent culture medium from each well and replacing with an equal volume of fresh medium. Plates were maintained at 37° C., 5% CO2 in a humidified box throughout the duration of assay.
(§3) Screening was conducted using test compounds from a proprietary library of small molecules selected for their ability to inhibit GSK-3B enzyme activity. Compounds from this library were made available as 1 mM stocks, in a 96-well plate format in 50 mM HEPES, 30% DMSO. Screening compounds were tested in triplicate or duplicate sets. Primary screening assays were initiated by aspirating culture medium from each well followed by three washes in PBS to remove residual growth factors and serum. Test volumes of 80 to 100 μl per well were added back containing DMEM:F12 base medium (Invitrogen) supplemented with 0.5% FCS (HyClone) and 100 ng/ml activin A (R&D Biosystems) plus 10 μM test compound. Positive control wells contained the same base medium, substituting 10-20 ng/ml Wnt3a (R&D Biosystems) for the test compound. Negative control wells contained base medium with 0.5% FCS and activin A alone (AA only) or alternatively, 0.5% FCS without activin A or Wnt3a (no treatment). Wells were aspirated and fed again with identical solutions on day 2 of assay. On days 3 and 4, all assay wells were aspirated and converted to DMEM:F12 supplemented with 2% FCS and 100 ng/ml activin A (without test compound or Wnt3a); parallel negative control wells were maintained in DMEM:F12 base medium with 2% FCS and activin A (AA only) or alternatively, 2% FCS without activin A (no treatment).
(§4) At the end of culture, cells in 96-well plates were fixed with 4% paraformaldehyde at room temperature for 20 minutes, washed three times with PBS, and then permeabilized with 0.5% Triton X-100 for 20 minutes at room temperature. Alternatively, cells were fixed with ice cold 70% ethanol overnight at −20° C., washed three times with PBS, and then permeabilized with Triton X-100 for 5 minutes at 4° C. After fixing and permeabilizing, cells were washed again three times with PBS and then blocked with 4% chicken serum (Invitrogen) in PBS for 30 minutes at room temperature. Primary antibodies (goat anti-human Sox17 and goat anti-human HNF-3beta; R&D Systems) were diluted 1:100 in 4% chicken serum and added to cells for one hour at room temperature. Alexa Fluor 488 conjugated secondary antibody (chicken anti-goat IgG; Molecular Probes) was diluted 1:200 in PBS and added after washing the cells three times with PBS. To counterstain nuclei, 5 mM Draq5 (Alexis Biochemicals) was added for five minutes at room temperature. Cells were washed once with PBS and left in […] PBS for imaging.
(§5) Cells were imaged using an IN Cell Analyzer 1000 (GE Healthcare) utilizing the 51008bs dichroic for cells stained with Draq5 and Alexa Fluor 488. […]

[2] = test system: cells expressing pluripotency markers derived from human embryonic stem cells; test: MTS viability (toxicity) assay of cells expressing pluripotency markers; parameters: Raw data (duplicate), first replicate / Average: unit not given here; details: for % Control / viability at 10 µM: viability of cells expressing pluripotency markers, relative to control; for viability at 10 µM: Homo sapiens, Embryonic stem cell
Description: Derivation and maintenance of cells expressing pluripotency makers was conducted as has been described in Example 2. Cells were grown in DMEM:F12 supplemented with 2% FCS (Invitrogen), 100 ng/ml Activin A, 20 ng/ml Wnt-3a, and 50 ng/ml IGF (R&D Biosystems). Cells were seeded at a density of 10,000 cells/cm^2 on Falcon polystyrene flasks and grown in monolayer culture at 37° C., 5% CO2, low oxygen. After reaching 60-70% confluence, cells were passed by washing the monolayer with PBS and incubating with TrypLE (Invitrogen) for 3-5 minutes to allow detachment and single cell dispersal.
Screening was conducted using test compounds from a proprietary library of small molecules selected for their ability to inhibit GSK-3B enzyme activity. Compounds from this library were made available as 1 mM stocks, in a 96-well plate format in 50 mM HEPES, 30% DMSO. For assay, cells expressing pluripotency markers were washed, counted, and plated in normal culture medium at a seeding density of 20,000 cells per well in 96-well clear-bottom, dark-well plates (Costar). This seeding density was previously determined to yield optimal monolayer formation in overnight culture. On the following day, culture medium was removed, cell monolayers were rinsed three times with PBS, and test compounds were added to the wells in 80 μl aliquots, each diluted into assay medium at a final assay concentration of 10 μM. On day 2 of the assay, medium was removed from each well and replaced with a fresh aliquot of test compounds diluted into assay medium. Assay medium on days 1 and 2 of culture consisted of DMEM:F12 supplemented with 0.5% FCS and 100 ng/ml Activin A. On days 3 and 4 of culture, medium was removed from each well and replaced with DMEM:F12 supplemented with 2% FCS and 100 ng/ml Activin A (no test compound). On day 4 of assay, 15 μl of MTS (Promega) was added to each well and plates were incubated at 37° C. for 1.5 to 4 hours prior to reading optical density at 490 nm on a SpectraMax (Molecular Devices) instrument. Statistical measures consisting of mean, standard deviation, and coefficient of variation were calculated for each duplicate set. Toxicity was calculated for each test well relative to a positive control (wells treated with Activin A and Wnt3a on days 1 and 2 of culture).
A larger proportion of the compounds have minimal or no measurable toxicity in this cell-based assay.
A small panel of select compounds was repeat tested over a narrow dose titration range, again using cells expressing pluripotency markers in a similar assay as described above.

[3] = test system: Sox17 expression in human embryonic stem cells (H9 line); test: High content screening assay: Sox17 protein expression (differentiation); details: for SOX-17 Expression Fold over Wnt 3a/AA control: total intensity normalised to Wnt 3a/AA control
Description: as §1, §2, §3, §4, §5

[4] = test system: HNF-3beta expression in human embryonic stem cells (H9 line); test: High content screening assay: HNF-3beta protein expression (differentiation); details: for HNF-3b Expression Fold over Wnt 3a/AA control: total intensity normalised to Wnt 3a/AA control
Description: as §1, §2, §3, §4, §5

[5] = test system: human embryonic stem cells (H9 or H1 lines); test: Plate reader (MTS) proliferation assay; details: plate reader raw signal, mean of replicate wells; proliferation of human embryonic stem cells
Description: Maintenance of human embryonic stem cells (H9 or H1 lines) was conducted as described in Example 1. Colonies of cells were maintained in an undifferentiated, pluripotent state with passage on average every four days. Passage was performed by exposing cell cultures to a solution of collagenase (1 mg/ml; Sigma-Aldrich) for 10 to 30 minutes at 37° C. followed by gentle scraping with a pipette tip to recover cell clusters. Clusters were allowed to sediment and washed to remove residual collagenase. Cell clusters were split at a ratio of 1:3 monolayer area for routine culture or a 1:1 ratio for immediate assay. The human embryonis stem cell lines used for these examples were maintained at passage numbers less than 50 and routinely evaluated for normal karyotypic phenotype as well as absence of mycoplasm contamination.
as §2, with “in” for “in the”, “into” for “onto”, “μl/well.” for “μA/well.”, “bFGF)” for “bFGF”, “C.” for “C., 5% CO2”, “box, 5% CO2” for “box”
Primary screening assays were initiated by aspirating culture medium from each well followed by three washes in PBS to remove residual growth factors and serum. Test volumes of 80-100 μl per well were added back containing DMEM:F12 base medium (Invitrogen) supplemented with 0.5% FCS (HyClone) and 100 ng/ml activin A (R&D Biosystems) and 10 μM test compound. Positive control wells contained the same medium substituting 10-20 ng/ml Wnt3a (R&D Biosystems). Negative control wells contained base medium with 0.5% FCS without activin A or Wnt3a. Screening compounds were tested in triplicate. Wells were aspirated and fed again with identical solutions on day 2 of the assay. On days 3 and 4, all assay wells were aspirated and converted to DMEM:F 12 supplemented with 2% FCS and 100 ng/ml activin A with the exception of negative control wells which were maintained in DMEM:F12 base medium with 2% FCS.
On day 4 of assay, 15-20 μl of MTS (Promega) was added to each well and plates were incubated at 37° C. for 1.5 to 4 hours. Densitometric readings at OD490 were determined using a Molecular Devices spectrophotometer plate reader. Average readings for replicate sets were calculated along with standard deviation and coefficient of variation. Experimental wells were compared to the Activin A/Wnt3a positive control to calculate a percent control value as a measure of proliferation.
Strong hits are defined as greater than or equal to 120% of control values; moderate hits are defined as falling within the interval of 60-120% of control values. A significant number of compounds induce a proliferative response in this assay.

[6] = cell number in the wells analysed for HNF-3b expression
[7] = cell number in the wells analysed for HNF-3b expression, normalised to Wnt 3a/AA control
[8] = cell number in the wells analysed for SOX-17 expression
[9] = cell number in the wells analysed for SOX-17 expression, normalised to Wnt 3a/AA control
[10] = MTS viability assay raw reading, replicate 1
[11] = MTS viability assay raw reading, replicate 2
[12] = average of duplicate MTS raw readings
[13] = 10 μM test compound with 100 ng/ml activin A on days 1-2, H9, total intensity by IN Cell Analyzer, strong and moderate hits

| SMILES | Proliferative Response Total cells [1, 6] | Proliferative Response Fold over Wnt 3a/AA control [1, 7] | Proliferative Response Total cells [1, 8] | Proliferative Response Fold over Wnt 3a/AA control [1, 9] | Raw data (duplicate), first replicate [2, 10] | Raw data (duplicate), second replicate [2, 11] | Average [2, 12] | % Control [2] | SOX-17 Expression Total Intensity [3] | SOX-17 Expression Fold over Wnt 3a/AA control [3] | HNF-3b Expression Total Intensity [4] | HNF-3b Expression Fold over Wnt 3a/AA control [4] | viability at 10 µM [2] | further results |
| --- | --- | --- | --- | --- | --- | --- | --- | --- | --- | --- | --- | --- | --- | --- |
| O=C1NC(=O)C2=C1c1cn(c3ncccc13)CCOCCOCCOCCn1cc2c2cccnc21 [Compound 2, 6,7,9,10,12,13,15,16-Octahydro-23H-5,26:17,22-di(metheno)dipyrido[2,3-k:3′,2′-q]pyrrolo[3,4-n][1,4,7,10,19]trioxadiazacyclohenicosine-23,25(24H)-dione] | 5679 | 1.125 fold | 10963 | 1.376 fold | 0.785 | 0.790 | 0.788 | 94.0% | 296920000 | 0.7921 fold | 463525000 | 1.0087 fold |  | Proliferative Response Fold over Wnt 3a/AA control ([1]; 10 μM test compound with 100 ng/ml activin A on days 1-2, H9, total cell number by IN Cell Analyzer, strong and moderate hits): 1.3757 Fold over Wnt 3a/AA control and 1.1246 Fold over Wnt 3a/AA control; SOX17 Expression, Fold over Wnt 3a/AA control [3, 13]: 0.7921 Fold over Wnt 3a/AA control; HNF3β Expression, Fold over Wnt 3a/AA control [4, 13]: 1.0087 Fold over Wnt 3a/AA control |
| CN1CCCn2cc(c3ccccc32)C2=C(C(=O)NC2=O)c2cn(c3ccccc23)CCOCCOCC1 [Compound 3, 14-Methyl-6,7,9,10,12,13,14,15,16,17-decahydro-24H-5,27:18,23-di(metheno)dibenzo[l,r]pyrrolo[3,4-o][1,4,7,11,20]dioxatriazacyclodocosine-24,26(25H)-dione] | 2184 | 0.4324 fold | 1766 | 0.2216 fold | 0.161 | 0.169 | 0.165 | 6.9% | 162790000 | 0.4343 fold | 189875000 | 0.4132 fold |  |  |
| NCCCn1nc(C2=C(c3cn(-c4csc5ccccc45)c4ccccc34)C(=O)NC2=O)c2ccccc21 [Compound 4] | 2776 |  | 2914 |  | 0.132 | 0.137 | 0.134 |  | 230965000 |  | 125125000 |  | 2.6% | fold induction at 10 µM ([3]; Homo sapiens, Embryonic stem cell, 10 μM test compound with 100 ng/ml activin A on days 1-2, H9, total intensity by IN Cell Analyzer, strong and moderate hits, read-out: SOX17 Expression, Fold over Wnt 3a/AA control): 0.616 |
| O=C1NC(=O)C(c2nn(CCCO)c3ccccc23)=C1c1cn(-c2ccc3ccccc3c2)c2ncccc12 [Compound 19, 3-[1-(3-Hydroxypropyl)-1H-indazol-3-yl]-4-(1-naphthalen-2-yl-1H-pyrrolo[2,3-b]pyridin-3-yl)-1H-pyrrole-2,5-dione] |  |  |  |  |  |  |  |  |  |  | 0 |  | 85.2% |  |
| O=C1NC(=O)C(c2cn(CCCO)c3ncccc23)=C1c1cc[nH]c1 [Compound 242, 4-[1-(3-Hydroxypropyl)-1H-pyrrolo[2,3-b]pyridin-3-yl]-1H,1′H-3,3′-bipyrrole-2,5-dione] |  |  |  |  |  |  |  |  |  |  |  |  | 71% | Average ([2]; MTS viability readout, average of duplicate raw data): 0.601; Raw data (duplicate), first replicate ([2]; MTS viability readout, raw value of replicate 1): 0.590; Raw data (duplicate), second replicate ([2]; MTS viability readout, raw value of replicate 2): 0.613; Average (of Raw Data) [5]: 0.1152 |
